Reference: patent publication US20040019024A1, “Use of vitamin d derivatives as bone resorption inhibitors” (priority 2000, published 2004)

What was measured:
[1] = test system: bone marrow cells of Paget's disease of bone patients; test: Osteoclast formation induced by 1α,25-dihydroxyvitamin D3 in bone marrow cultures from Paget's disease of bone patients; format: cell-based, human; conditions: for osteoclast formation (average number of cells ± S.D.): Paget's marrow
Source text: (§1) Mononuclear cells were fractionated from bone marrow cells of healthy normal persons according to a method of Kurihara et al. (Endocrinology, vol. 126, 2733-2741 (1990)). Briefly, bone marrow cells were obtained from normal persons, a mononuclear cell fraction was collected by Hypaque-Ficoll density gradient centrifugation, the cell fraction was washed with α-Minimal Essential Media (α-MEM) 3 times, and the cells dispersed in α-MEM containing 10% fetal bovine serum. This mononuclear cell suspension was seeded in 100-mm tissue culture plates, the culture plate was kept for 90 minutes at 37° C. in a 4% CO2-air atmosphere, and the non-adherent cells were collected. The non-adherent mononuclear cells were dispersed into α-MEM culture medium containing 20% horse serum at 10^6 cells/ml, the cell suspension was seeded into 96-well multi plates at 100 μl/well.
The capacity of the compound 11 (23S isomer) to inhibit osteoclast formation induced by 1α,25-dihydroxyvitamin D3 was evaluated as follows: Various concentrations of 1α,25-dihydroxyvitamin D3, various concentrations of compound 11 ([…]) solution were added to each well. The culture medium was replaced twice weekly and the cultures continued for 3 weeks at 37° C. in an atmosphere of 4% CO2-air. Osteoclasts that formed were identified by their capacity to bind the 23C6 antibody. The nuclei were counter stained with methyl green. Cells that reacted with the 23C6 antibody and had 3 or more nuclei were scored as osteoclasts.
Bone marrow cells were obtained from involved bones of patients with Paget's disease of bone and processed and cultured as described above for normal bone cells. The cultures were treated in an identical manner with 1α,25-dihydroxyvitamin D3 and/or compound 11 (23S isomer) as described in Example 1.
Bone marrow cultures were performed as described in Example 1, with the exception that different types of vitamin D antagonists were added to at varying concentrations to bone marrow cultures stimulated with 1α,25-dihydroxyvitamin D3. The bone marrow cells were taken from involved bones of patients with Paget's disease of bone and the cultures were performed as described in Example 2. There are two diastereoisomers, based on the asymmetric carbon at the 23 position, in compounds 13 and 16. The isomer having the shorter retention time on reverse phase HPLC analysis was the more polar isomer and the isomer having the longer retention time was the less polar isomer.

vitamin D deficient rats = test: Bone resorption (serum calcium) induced by 1α,25-dihydroxyvitamin D3 in vitamin D deficient rats; format: in vivo, Wistar rats
Procedure: Four-week-old male Wistar rats purchased from Japan SLC (Shizuoka, in Japan) were used. The animals were kept in wire-net cages (three animals in a cage) and raised for 7 weeks with free access to a vitamin D-deficient diet (Ca, 0.0036%; P, 0.3%; Harlan Taklad Research Diet, Madison, Wis., U.S.A.) and drinking water (well water treated with hypochlorite of […]±0.2 ppm). Temperature was kept at 23±1° C. and the humidity at 55±10%. Five animals were used for each experimental group. The control animals received intravenously administered solvent (5% ethanol-0.1% Triton X-100-physiological saline solution), and the experimental animals were intravenously administered 1α,25-dihydroxyvitamin D3 at a dose of 0.25 μg/kg. For animals receiving vitamin D derivatives, compound 11 (23S isomer) was administered intravenously at a dose of 2 μg/kg, 10 μg/kg or 50 μg/kg, or the compound 11 (23S isomer) with or without 1α,25-dihydroxyvitamin D3 at a dose of 0.25 μg/kg. The volume was 2 ml/kg for each animal. 24 hours after administration, a blood sample was taken out from abdominal descending aorta under ether anesthesia, the serum was collected according to conventional methods, and the calcium concentration in the serum was measured. The calcium concentrations were measured according to OCPC-method (Am. J. Clin. Pathol., vol. 45, 290-296 (1966)) with an autoanalyzer (type 7070, manufactured by Hitachi Seisakusho).

[2] = test system: bone marrow cells of normal persons; test: Osteoclast formation induced by 1α,25-dihydroxyvitamin D3 in normal human bone marrow cultures; format: cell-based; conditions: for osteoclast formation (average number of cells ± S.D.): compound alone, normal marrow, 3 weeks
Source text: as §1, with “μl/well. The capacity of the compound 11 (23S isomer) to inhibit osteoclast formation induced by 1α,25-dihydroxyvitamin D3 was evaluated as follows: Various concentrations of 1α,25-dihydroxyvitamin D3, various concentrations of compound 11 (23S isomer) or a combination of 10^−8 M 1α,25-dihydroxyvitamin D3 solution and various concentrations of compound 11 (23S isomer) solution were added to each well. The culture medium was replaced twice weekly and the cultures continued for 3 weeks at 37° C. in an atmosphere of 4% CO2-air. Osteoclasts that formed were identified by their capacity to bind the 23C6 antibody. The nuclei were counter stained with methyl green. Cells that reacted with the 23C6 antibody and had 3 or more nuclei were scored as osteoclasts.” for “μl/well.”

[3] = 10^−10 M 1α,25-dihydroxyvitamin D3 + compound 10^−7 M
[4] = 10^−10 M 1α,25-dihydroxyvitamin D3 + compound 10^−8 M
[5] = 10^−10 M 1α,25-dihydroxyvitamin D3 + compound 10^−9 M
[6] = compound alone, Paget's marrow cultures

| SMILES | osteoclast formation (average number of cells ± S.D.) [1, 3] | osteoclast formation (average number of cells ± S.D.) [1, 4] | osteoclast formation (average number of cells ± S.D.) [1, 5] | induction of osteoclast formation by the compound alone (in words) ([1]; Paget's marrow cultures) | osteoclast formation (average number of cells ± S.D.) ([1]; compound alone, 10^−7 M) | osteoclast formation (average number of cells ± S.D.) ([1]; compound alone, 10^−8 M) | osteoclast formation (average number of cells ± S.D.) ([1]; compound alone, 10^−9 M) | effect on basal osteoclast formation (in words) [1, 6] | other results |
| --- | --- | --- | --- | --- | --- | --- | --- | --- | --- |
| C=C1CC(CC(C)C2CCC3C(=CC=C4CC(O)CC(O)C4=C)CCCC32C)CC1=O (single isomer, unassigned; less polar) [compound 13 (less polar isomer)] | 14 ± 1 cells | 70 ± 2 cells | 127 ± 4 cells | did not induce the osteoclast formation | 1 ± 1 cells | 6 ± 2 cells | 7 ± 1 cells | inhibited basal osteoclast formation | – |
| C=C1CC(CC(C)C2CCC3C(=CC=C4CC(O)CC(O)C4=C)CCCC32C)CC1=O (single isomer, unassigned; more polar) [compound 13 (more polar isomer)] | 31 ± 5 cells | 79 ± 9 cells | 152 ± 12 cells | did not induce the osteoclast formation | 3 ± 4 cells | 25 ± 4 cells | 44 ± 5 cells | inhibited basal osteoclast formation | – |
| C=C1/C(=C\C=C2/CCC[C@]3(C)[C@@H]([C@H](C)CCCC(C)(C)O)CC[C@@H]23)C[C@@H](O)C[C@@H]1O [1α,25-dihydroxyvitamin D3, reference compound] | – | – | – | – | 205 ± 6 cells | 206 ± 16 cells | 211 ± 25 cells | – | serum calcium concentration compared to controls (in words) (vitamin D deficient rats; 0.25 μg/kg, 24 hours after receiving): significant increased serum calcium concentration; serum Ca concentration (vitamin D deficient rats; compound alone, 0.25 μg/kg intravenously, 24 hours after administration): 5.42 ± 0.12 mg/100 ml serum; osteoclast formation at 10^−10 M (in words) ([2]; 10^−10 M, bone marrow cells of normal persons): is not induced; osteoclast formation (average number of cells ± S.D.) ([2]; 10^−7 M): 91 ± 7 cells; osteoclast formation (average number of cells ± S.D.) ([2]; 10^−8 M): 87 ± 12 cells; osteoclast formation (average number of cells ± S.D.) ([2]; 10^−9 M): 34 ± 6 cells; osteoclast formation (average number of cells ± S.D.) ([2]; 10^−10 M): 11 ± 2 cells; osteoclast formation (average number of cells ± S.D.) ([2]; 10^−11 M): 13 ± 3 cells; concentration at which osteoclast formation was maximal ([2]; normal marrow cultures): 10^−8 M; osteoclast formation at 10^−10 M (in words) ([1]; 10^−10 M, bone marrow cells from Paget's disease of bone patients): is induced; lowest concentration inducing osteoclast formation ([1]; Paget's marrow cultures): 10^−11 M; osteoclast formation (average number of cells ± S.D.) ([1]; compound alone, 10^−10 M): 180 ± 15 cells; osteoclast formation (average number of cells ± S.D.) ([1]; compound alone, 10^−11 M): 134 ± 14 cells |
| C=C1CC(CC(C)C2CCC3C(=CC=C4CC(O)CC(O)C4=C)CCCC32C)OC1=O (stereo not drawn) [compound 11 (23R isomer)] | 18 ± 9 cells | 70 ± 12 cells | 145 ± 8 cells | did not induce the osteoclast formation | 1 ± 1 cells | 20 ± 3 cells | 32 ± 3 cells | inhibited basal osteoclast formation | – |
